Measured values as given in article PMC6979384, “Characterization of the plant homeodomain (PHD) reader family for their histone tail interactions” (Epigenetics & Chromatin, 2020).

How the values were obtained:
Assay in all cases: Histone peptide microarray
Format in all cases: binding, human
Settings in all cases: histone peptide array
DPF2 (PPC2W2) = tested on: DPF2 (PPC2W2)
Procedure, shortened: (§1)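 Binding of recombinant GST-fused PHD readers (0.5 μM) is detected on an array of 293 histone peptides, modified singly or in combination. An optimized array protocol is followed, and each intensity is the average of quadruplicate measurements with standard deviation.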

CHD4 (PPCC) = tested on: CHD4 (PPCC)
Procedure, shortened: as §1

PHF23 = tested on: PHF23
Procedure, shortened: as §1

ING1 = tested on: ING1
Procedure, shortened: as §1

AIRE (PP) = tested on: AIRE (PP)
Procedure, shortened: as §1

PHF13 = tested on: PHF13
Procedure, shortened: as §1

MORC3 (CW) = tested on: MORC3 (CW)
Procedure, shortened: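 Readout is array binding signal, reported as the mean and standard deviation over four replicates. Each purified GST-fused PHD domain was incubated at 0.5 μM with a library of 293 modified histone peptides.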

ING4 = tested on: ING4
Procedure, shortened: as §1

KDM5A (3) = tested on: KDM5A (3)
Procedure, shortened: as §1

KDM5B (1) = tested on: KDM5B (1)
Procedure, shortened: as §1

PHF2 = tested on: PHF2
Procedure, shortened: as §1

KDM5A (1) = tested on: KDM5A (1)
Procedure, shortened: as §1

KDM7A = tested on: KDM7A
Procedure, shortened: as §1

KDM5B (3) = tested on: KDM5B (3)
Procedure, shortened: as §1

CHD5 (PPCC) = tested on: CHD5 (PPCC)
Procedure, shortened: as §1

RAG2 = tested on: RAG2
Procedure, shortened: as §1

MLL5 = tested on: MLL5
Procedure, shortened: as §1

BPTF (PB) = tested on: BPTF (PB)
Procedure, shortened: as §1

ING2 = tested on: ING2
Procedure, shortened: as §1

KDM4C (TTP) = tested on: KDM4C (TTP)
Procedure, shortened: as §1

CHD5 (PCC) = tested on: CHD5 (PCC)
Procedure, shortened: as §1

ING3 = tested on: ING3
Procedure, shortened: as §1

TRIM66 (PB) = tested on: TRIM66 (PB)
Procedure, shortened: as §1

DIDO1 = tested on: DIDO1
Procedure, shortened: as §1

PHF21A = tested on: PHF21A
Procedure, shortened: as §1

PHRF1 (RP) = tested on: PHRF1 (RP)
Procedure, shortened: as §1

PHF8 = tested on: PHF8
Procedure, shortened: as §1

BAZ2B = tested on: BAZ2B
Procedure, shortened: as §1

ING5 = tested on: ING5
Procedure, shortened: as §1

TAF3 = tested on: TAF3
Procedure, shortened: as §1

SP140L = tested on: SP140L
Procedure, shortened: as §1

[1] = GST-tagged DPF2 (PPC2W2 = Dual PHD + C2W2-type Zn-finger), arrays performed twice, n of 4
[2] = GST-tagged CHD4 (PPCC = Dual PHD + Dual Chromodomain), arrays performed twice, n of 4
[3] = GST-tagged PHF23, arrays performed twice, n of 4
[4] = GST-tagged ING1, arrays performed twice, n of 4
[5] = GST-tagged AIRE (PP), arrays performed twice, n of 4
[6] = GST-tagged PHF13, arrays performed twice, n of 4
[7] = GST-tagged MORC3 (CW = CW-type Zn-finger), arrays performed twice, n of 4
[8] = GST-tagged ING4, arrays performed twice, n of 4
[9] = GST-tagged KDM5A (3), arrays performed twice, n of 4
[10] = GST-tagged KDM5B (1), arrays performed twice, n of 4
[11] = GST-tagged PHF2, arrays performed twice, n of 4
[12] = GST-tagged KDM5A (1), arrays performed twice, n of 4
[13] = GST-tagged KDM7A, arrays performed twice, n of 4
[14] = GST-tagged KDM5B (3), arrays performed twice, n of 4
[15] = GST-tagged CHD5 (PPCC = Dual PHD + Dual Chromodomain), arrays performed twice, n of 4
[16] = GST-tagged RAG2, arrays performed twice, n of 4
[17] = GST-tagged MLL5, arrays performed twice, n of 4
[18] = GST-tagged BPTF (PB = PHD + Bromodomain), arrays performed twice, n of 4
[19] = GST-tagged ING2, arrays performed twice, n of 4
[20] = GST-tagged KDM4C (TTP = Tandem Tudor domain + PHD), arrays performed twice, n of 4
[21] = GST-tagged CHD5 (PCC = PHD + Dual Chromodomain), arrays performed twice, n of 4
[22] = GST-tagged ING3, arrays performed twice, n of 4
[23] = GST-tagged TRIM66 (PB = PHD + Bromodomain), arrays performed twice, n of 4
[24] = GST-tagged DIDO1, arrays performed twice, n of 4
[25] = GST-tagged PHF21A, arrays performed twice, n of 4
[26] = GST-tagged PHRF1 (RP), arrays performed twice, n of 4
[27] = GST-tagged PHF8, arrays performed twice, n of 4
[28] = GST-tagged BAZ2B, arrays performed twice, n of 4
[29] = GST-tagged ING5, arrays performed twice, n of 4
[30] = GST-tagged TAF3, arrays performed twice, n of 4
[31] = GST-tagged SP140L, arrays performed twice, n of 4
[32] = sheet "Array Heatmap", GST-tagged reader, total n = 4

## H4R3me2s: H4 1-23 [Peptide H4R3me2s]
DPF2 (PPC2W2); [1]
  Array Heatmap signal, DPF2 (PPC2W2): 0.7228
CHD4 (PPCC); [2]
  Array Heatmap signal, CHD4 (PPCC): 0.556
PHF23; [3]
  Array Heatmap signal, PHF23: 0.6199
ING1; [4]
  Array Heatmap signal, ING1: 0.5148
AIRE (PP); [5]
  Array Heatmap signal, AIRE (PP): 0.462
PHF13; [6]
  Array Heatmap signal, PHF13: 0.6145
MORC3 (CW); [7]
  Array Heatmap signal, MORC3 (CW): 0.4671
ING4; [8]
  Array Heatmap signal, ING4: 0.4621
KDM5A (3); [9]
  Array Heatmap signal, KDM5A (3): 0.6488
KDM5B (1); [10]
  Array Heatmap signal, KDM5B (1): 0.7045
PHF2; [11]
  Array Heatmap signal, PHF2: 0.5067
KDM5A (1); [12]
  Array Heatmap signal, KDM5A (1): 0.4765
KDM7A; [13]
  Array Heatmap signal, KDM7A: 0.4774
KDM5B (3); [14]
  Array Heatmap signal, KDM5B (3): 0.5522
CHD5 (PPCC); [15]
  Array Heatmap signal, CHD5 (PPCC): 0.5547
RAG2; [16]
  Array Heatmap signal, RAG2: 0.376
MLL5; [17]
  Array Heatmap signal, MLL5: 0.6336
BPTF (PB); [18]
  Array Heatmap signal, BPTF (PB): 0.3851
ING2; [19]
  Array Heatmap signal, ING2: 0.6344
KDM4C (TTP); [20]
  Array Heatmap signal, KDM4C (TTP): 0.5129
CHD5 (PCC); [21]
  Array Heatmap signal, CHD5 (PCC): 0.8078
ING3; [22]
  Array Heatmap signal, ING3: 0.498
TRIM66 (PB); [23]
  Array Heatmap signal, TRIM66 (PB): 0.614
DIDO1; [24]
  Array Heatmap signal, DIDO1: 0.7583
PHF21A; [25]
  Array Heatmap signal, PHF21A: 0.451
PHRF1 (RP); [26]
  Array Heatmap signal, PHRF1 (RP): 0.4693
PHF8; [27]
  Array Heatmap signal, PHF8: 0.4581
BAZ2B; [28]
  Array Heatmap signal, BAZ2B: 0.5351
ING5; [29]
  Array Heatmap signal, ING5: 0.3741
TAF3; [30]
  Array Heatmap signal, TAF3: 0.3502
SP140L; [31]
  Array Heatmap signal, SP140L: 0.3481

## H4R3me2s + K5ac + K8ac + K12ac + K16ac + K20ac: H4 1-23
DPF2 (PPC2W2); [1]
  Array Heatmap signal, DPF2 (PPC2W2): 0.6954
CHD4 (PPCC); [2]
  Array Heatmap signal, CHD4 (PPCC): 0.5891
PHF23; [3]
  Array Heatmap signal, PHF23: 0.5758
ING1; [4]
  Array Heatmap signal, ING1: 0.5887
AIRE (PP); [5]
  Array Heatmap signal, AIRE (PP): 0.4445
PHF13; [6]
  Array Heatmap signal, PHF13: 0.6071
MORC3 (CW); [7]
  Array Heatmap signal, MORC3 (CW): 0.4281
ING4; [8]
  Array Heatmap signal, ING4: 0.4768
KDM5A (3); [9]
  Array Heatmap signal, KDM5A (3): 0.5291
KDM5B (1); [10]
  Array Heatmap signal, KDM5B (1): 0.6719
PHF2; [11]
  Array Heatmap signal, PHF2: 0.6188
KDM5A (1); [12]
  Array Heatmap signal, KDM5A (1): 0.4598
KDM7A; [13]
  Array Heatmap signal, KDM7A: 0.3478
KDM5B (3); [14]
  Array Heatmap signal, KDM5B (3): 0.4887
CHD5 (PPCC); [15]
  Array Heatmap signal, CHD5 (PPCC): 0.5595
RAG2; [16]
  Array Heatmap signal, RAG2: 0.3093
MLL5; [17]
  Array Heatmap signal, MLL5: 0.5888
BPTF (PB); [18]
  Array Heatmap signal, BPTF (PB): 0.483
ING2; [19]
  Array Heatmap signal, ING2: 0.6618
KDM4C (TTP); [20]
  Array Heatmap signal, KDM4C (TTP): 0.4958
CHD5 (PCC); [21]
  Array Heatmap signal, CHD5 (PCC): 0.7755
ING3; [22]
  Array Heatmap signal, ING3: 0.4923
TRIM66 (PB); [23]
  Array Heatmap signal, TRIM66 (PB): 0.6231
DIDO1; [24]
  Array Heatmap signal, DIDO1: 0.8519
PHF21A; [25]
  Array Heatmap signal, PHF21A: 0.4472
PHRF1 (RP); [26]
  Array Heatmap signal, PHRF1 (RP): 0.4884
PHF8; [27]
  Array Heatmap signal, PHF8: 0.384
BAZ2B; [28]
  Array Heatmap signal, BAZ2B: 0.4891
ING5; [29]
  Array Heatmap signal, ING5: 0.3711
TAF3; [30]
  Array Heatmap signal, TAF3: 0.282
SP140L; [31]
  Array Heatmap signal, SP140L: 0.3449

## H3R8me2a: H3 1-20 [Peptide H3R8me2a]
DPF2 (PPC2W2); [32]
  Array Heatmap signal, DPF2 (PPC2W2): 0.6583
CHD4 (PPCC); [32]
  Array Heatmap signal, CHD4 (PPCC): 0.5373
PHF23; [32]
  Array Heatmap signal, PHF23: 0.5221
ING1; [32]
  Array Heatmap signal, ING1: 0.4976
AIRE (PP); [32]
  Array Heatmap signal, AIRE (PP): 0.5572
PHF13; [32]
  Array Heatmap signal, PHF13: 0.5768
MORC3 (CW); [32]
  Array Heatmap signal, MORC3 (CW): 0.4558
ING4; [32]
  Array Heatmap signal, ING4: 0.4314
KDM5A (3); [32]
  Array Heatmap signal, KDM5A (3): 0.6079
KDM5B (1); [32]
  Array Heatmap signal, KDM5B (1): 0.6786
PHF2; [32]
  Array Heatmap signal, PHF2: 0.4368
KDM5A (1); [32]
  Array Heatmap signal, KDM5A (1): 0.4494
KDM7A; [32]
  Array Heatmap signal, KDM7A: 0.3419
KDM5B (3); [32]
  Array Heatmap signal, KDM5B (3): 0.4831
CHD5 (PPCC); [32]
  Array Heatmap signal, CHD5 (PPCC): 0.5334
RAG2; [32]
  Array Heatmap signal, RAG2: 0.2386
MLL5; [32]
  Array Heatmap signal, MLL5: 0.5074
BPTF (PB); [32]
  Array Heatmap signal, BPTF (PB): 0.3288
ING2; [32]
  Array Heatmap signal, ING2: 0.6044
KDM4C (TTP); [32]
  Array Heatmap signal, KDM4C (TTP): 0.4962
CHD5 (PCC); [32]
  Array Heatmap signal, CHD5 (PCC): 0.7162
ING3; [32]
  Array Heatmap signal, ING3: 0.4474
TRIM66 (PB); [32]
  Array Heatmap signal, TRIM66 (PB): 0.5681
DIDO1; [32]
  Array Heatmap signal, DIDO1: 0.6465
PHF21A; [32]
  Array Heatmap signal, PHF21A: 0.4488
PHRF1 (RP); [32]
  Array Heatmap signal, PHRF1 (RP): 0.6824
PHF8; [32]
  Array Heatmap signal, PHF8: 0.3345
BAZ2B; [32]
  Array Heatmap signal, BAZ2B: 0.437
ING5; [32]
  Array Heatmap signal, ING5: 0.3481
TAF3; [32]
  Array Heatmap signal, TAF3: 0.2542
SP140L; [32]
  Array Heatmap signal, SP140L: 0.3504
